Tests used:
[1] = River sediment/water fate test (US FDA Guideline 3.11) with 14C-MPM; details: all systems and dosings
Description: A river sediment/water fate test with two different ^14C-MPMs (one carboxyl-^14C-labelled, the other morpholine-^14C-labelled) was commissioned in 1994 by Syntex according to US FDA Guideline 3.11 in compliance with GLP (Yan 1995). Both carboxyl-^14C-labelled and morpholine-^14C-labelled MPM were tested separately for biodegradability in river water and sediment at dosing concentrations of 1 and 5 mg MPM/L, in parallel test set-ups in the dark at 21±1 °C over 64 days. Air was drawn in flow-through systems first through a 2 N KOH vessel to remove natural CO2, then through the test vessel and subsequently through two sequential 2 N KOH traps for ^14CO2 capture. Samples from the latter traps were taken for duplicate ^14CO2 analysis by LSC on days 1, 2, 3, 7, 14, 21, 28, 35, 49 and 64. Test medium samples for HPLC analysis were taken on days 0.01 (15 min after dosing), 1, 3, 7, 14, 21, 35, 49 and 64. Sediment samples were taken at the end for combustion and ^14CO2 analysis.

[2] = OECD test guideline 301F ready biodegradability test
humans = experiment: Derivation of acceptable daily exposure (ADE); set-up: species or system human
Description: Similarly, potential risk for humans from secondary poisoning is assessed by using the acceptable daily exposure (ADE) value for MPA (T. Pfister, unpublished data), which considers toxicological data as well as human experience and covers all routes of uptake, including sensitive subpopulations, over 365 d/annum, with the combined worst‐case uptake through drinking water and fish. No removal of MPA in drinking water production is assumed, but a default intake of 2 L water and 115 g fish/person and day is assumed (European Commission 2011; Murray‐Smith et al. 2012). This combined uptake is then compared with the ADE.
The ADE was derived based on the available nonclinical and clinical data, with the critical effects identified as 1) immunosuppression and secondary effects thereof and 2) teratogenicity; in addition, the relevance of positive results in genotoxicity tests was assessed (T. Pfister, unpublished data). Based on the NOAEL of 2 mg/kg body weight/d in the 12‐mo oral toxicity study in the rat, an ADE was derived by multiplying this NOAEL by a default body weight of 60 kg for humans and dividing by adjustment factors, namely, 6.2 for extrapolation from rats to humans, 10 for variability between individuals, 1 for study duration of 1 yr for rodents, 5 for severity of systemic toxicity (hematopoiesis, immunotoxicity), and 3 for use of an established NOAEL instead of an NOEL; this derivation results in a first ADE of 0.1 mg MPM/60‐kg person/d. […] The weak clastogenic potential observed at higher doses was considered to be irrelevant at these exposure levels. Because the first ADE was lower than, and therefore also protective of, the second, 0.1 mg MPM/60‐kg person/d was selected as the ADE. Stoichiometrically, this ADE for MPM corresponds to 0.0739 mg MPA/d, which was rounded to 0.075 mg or 75 µg MPA/d. The MTDI for an otter was derived by normalizing the ADE for a 60‐kg human to the otter with a default body mass of 10 kg, resulting in an MTDI of 0.0125 mg or 12.5 µg MPA/10‐kg otter/d.

[3] = set-up: method as in T. Pfister, unpublished data; details: ref T. Pfister, unpublished data, cited from earlier work
mice = test system: mice; set-up: method as in T. Pfister, unpublished data; details: oral, 104 wk at 25, 75, or 180 mg/kg body weight/d, ref T. Pfister, unpublished data; cited from earlier work
rats [4] = test system: rats; set-up: method as in T. Pfister, unpublished data; details: at least 104 wk at 3, 7, or 15 mg/kg body weight/d, ref T. Pfister, unpublished data; cited from earlier work
rats [5] = test system: rats; set-up: method as in T. Pfister, unpublished data; details: oral, ref T. Pfister, unpublished data; cited from earlier work
rabbits = test system: rabbits; set-up: method as in T. Pfister, unpublished data; details: oral, ref T. Pfister, unpublished data; cited from earlier work
[6] = test system: lymphocyte and erythrocyte systems; set-up: method as in T. Pfister, unpublished data; details: ref T. Pfister, unpublished data; cited from earlier work
[7] = test system: mice with large cell lymphoma; set-up: method as in T. Pfister, unpublished data; details: ref T. Pfister, unpublished data; cited from earlier work
[8] = set-up: method as in Lee et al. 1990; Shipkova et al. 2005; details: in the liver and intestine; ref Lee et al. 1990; Shipkova et al. 2005; cited from earlier work
rat = details: in vivo, po; cited from earlier work
rats [9] = details: cited from earlier work
[10] = OECD test guideline 314B activated sludge biodegradation simulation test
Description: Mineralization comprises evolved CO2 (detected in the traps) as well as CO2 dissolved in the sludge. The latter was highest at day 2 and decreased afterward, whereas the amount of evolved CO2 increased continuously until the end of the study. […] At no time point was a noteworthy amount of radioactivity (>2% iRR throughout the test period) detected in the liquor after extraction. Radioactivity in the solids extract was highest at day 0 (5.5% iRR) and decreased afterward to 0.3% iRR after 28 d.
Based on this k biodeg and physicochemical properties for MPA, SimpleTreat 4.0 (Struijs 2015) calculated a removal of 12% in STPs, mostly through biodegradation (0.27% in the primary settler and 11.5% in the aeration tank), with a small fraction of 0.13% adsorbed to sludge, in agreement with the OECD test guideline106 (Organisation for Economic Co‐operation and Development 2000) adsorption results mentioned in the previous paragraph (V. Halász‐Laky, unpublished data). […] A high degradation rate is supported by data from Franquet‐Griell et al. (2017b), who measured STP influents and effluents and compared solid phase extraction and macroporous ceramic passive samplers in Spain. […]

D. magna = test system: D. magna; set-up: method as in FASS 2018; details: OECD 202; ref FASS 2018; cited from earlier work
Cyprinus carpio = test system: Cyprinus carpio; set-up: method as in FASS 2018; details: OECD 203; ref FASS 2018; cited from earlier work
[11] = set-up: method as in FASS 2018; details: OECD 209; ref FASS 2018; cited from earlier work

Compound: COc1c(C)c2c(c(O)c1C/C=C(\C)CCC(=O)OCCN1CCOCC1)C(=O)OC2 [MPM, mycophenolate mofetil]
- time to full primary degradation [1]: ≤ 7 days
- inhibition of activated sludge activity ([2]; nominal 100 mg MPM/L): no inhibition
- ready biodegradability result ([2]; nominal 100 mg/L): primary degradation by HPLC without oxygen uptake
- first ADE (selected as the ADE) (humans; from rat 12‐mo NOAEL): 0.1 mg MPM/60‐kg person/d
- second ADE (humans; from rat teratogenicity NOEL): 0.19 mg MPM/60‐kg person/d
- clastogenicity ([3]; extended exposure, only at highly cytotoxic dose levels): possesses a clastogenic potential
- point mutations or primary DNA damage ([3]; presence or absence of metabolic activation): did not induce point mutations or primary DNA damage
- carcinogenicity (mice): not carcinogenic
- carcinogenicity (rats [4]): not carcinogenic
- no‐observed‐effect level (NOEL) for teratogenic changes (rats [5]): 2 mg/kg body weight/d
- no‐observed‐effect level (NOEL) for teratogenic changes (rabbits): 30 mg/kg body weight/d
- in vitro antitumour effects [6]: in vitro antitumour effects
- survival times [7]: prolonged survival times
- hydrolysis of prodrug [8]: rapidly and fully hydrolyzed to MPA
- no‐observed‐adverse‐effect level (NOAEL) (rat): 2 mg/kg body weight/d
- dose causing malformations in the pups in the absence of maternal toxicity (rats [9]; highest dose, oral, rats, ref T. Pfister, unpublished data): 4.5 mg/kg body weight/d
- NOAEL, female fertility and reproduction study (rats [9]; rat, in vivo, po): 1.5 mg/kg body weight/d
- effect on fertility (rats [9]; rats, oral, ref T. Pfister, unpublished data): no effect on fertility

Compound: COc1c(C)c2c(c(O)c1C/C=C(\C)CCC(=O)O)C(=O)OC2 [^14C‐MPA, Mycophenolic acid, [carboxyl‐14C]]
- degradation in activated sludge [10]: > 80%

Compound: COc1c(C)c2c(c(O)c1C/C=C(\C)CCC(=O)[O-])C(=O)OC2.[Na+] [sodium‐MPA]
- acute daphnid EC50 (D. magna): > 100 µg/mL
- acute fish 50% lethal concentration (LC50) (Cyprinus carpio): > 100 µg/mL
- 3‐h EC50, respiration inhibition [11]: 2213 µg/mL
- EC10, respiration inhibition [11]: 69 µg/mL

Reference: publication PMC6856805, “Environmental Risk Assessment for the Active Pharmaceutical Ingredient Mycophenolic Acid in European Surface Waters” (Environmental Toxicology and Chemistry, 2019)
